Data: patent publication US20140343050A1, “PRODRUGS OF D-ISOGLUTAMYL-[D/L]-TRYPTOPHAN” (APTOEX TECHNOLOGIES, INC., priority 2011, published 2014)
Values belong to the compound of their own block, whether it stands above or below them.

Legend:
[1] = Stability / bioconversion to Apo805 in human blood; conditions: 100 μM prodrug, pooled human blood, 37° C.
Source text: (§1) HPLC analysis was done using an Agilent 1100 series HPLC system consisting of a programmable multi-channel pump, auto-injector, vacuum degasser and HP detector controlled by Agilent HPLC218 Chem Station Rev.A.09.03 software for data acquisition and analysis. A gradient method was used for the determination of all pro-drugs and their hydrolysis products including Apo805 on an Agilent Eclipse XDB, C18 column (part #963967-902, 150×4.6 mm, 3.5 μm) with the following chromatographic conditions: • Temperature: Ambient • Mobile phase: A=Aqueous phase: 10 mM Tris-HCl, 2 mM EDTA, pH 7.4 B=Organic phase: Acetonitrile • Gradient method: Time: 0 min 5% B, 25 min 50% B, 35 min 80% B, 45 min 5% B, 50 min 5% B. • Mobile phase flow rate: 1.0 mL/min • Injection volume: 50 μL • Data acquisition time: 30 min • Detection wavelength: 280 nm; 4 nm bandwidth, ref. 360 nm, • 4 nm bandwidth The chromatograms at λ=280 nm were analyzed. Peak area (mAU*s) was used for quantitation of pro-drugs, intermediates and thymodepressin (Apo805).
Blood was collected from healthy volunteers, both male and female, in Becton Dickinson ACD Vacutainer™ containing ACD solution A (22.0 g/L trisodium citrate, 8.0 g/L citric acid, 24.5 g/L dextrose). […] After 10-min incubation on ice, samples were centrifuged (16,000×g, 10 min) and the supernatants were analyzed by HPLC.

human hepatocytes = experiment: Biotransformation to Apo805 in human hepatocytes; conditions: for Half-life for bioconversion to Apo805 (h), Human hepatocytes: 100 μM prodrug, pooled cryopreserved human hepatocytes
Method: LiverPool® cryopreserved human hepatocytes (pooled from 10 male donors) was obtained from Celsis In Vitro Technologies. The hepatocytes were stored in liquid nitrogen until used. Just before the assay, the hepatocytes were quickly thawed at 37° C. and centrifuged at 100×g for 10 min. The media was removed and cells were re-suspended in PBS at a density of 4×10^6 cells/mL. […] After 10, 20, 60, 120 and 240 min of incubation, the reaction was quenched by adding an equal volume of 5% (w/v) TCA. The “time 0” sample was generated by adding TCA before the test compound. After brief vortexing and 10-min incubation on ice, samples were centrifuged (16,000×g, 10 min) and the supernatants were analyzed by HPLC with UV detection.
as §1

[2] = Pharmacokinetic study in rats, oral bioavailability (plasma Apo805); format: in vivo; conditions: male Sprague-Dawley rats, oral 5 mg/kg, in words
Method: Groups of five male Sprague-Dawley rats weighing 250 to 300 g were utilized per dosing group. One day prior to dosing, venous and arterial catheters (made of 20 cm long polyurethane coiled tubing, and filled with 100 units/mL heparinized saline) were implanted into the jugular vein and carotid artery of each rat. Rats were fasted overnight prior to oral dosing and fed approximately 2 hours post-dosing. All dosing and blood sampling was performed on fully conscious rats. Tested compounds were administered either by oral gavage as solutions in water, or by intravenous injection (Apo805K1 only) as solution in 0.9% sodium chloride, final pH 7.0, at doses equivalent to 5 mg/kg (per Apo805 content). Blood (0.3 mL) was sampled from each animal from the carotid artery for up to 30 hours post-dosing, each sampling followed by an equivalent naive-blood replacement. […]
A Sciex API 365 LC/MS/MS […] equipped with Ionics EP10+ and HSID, was used, A chiral column (Supelco-Astec CHIROBIOTIC™ TAG), 100×2.1 mm, 5 μm was used at ambient temperature. […] Samples were analysed for the concentration of Apo805 (thymodepressin).
Non-compartmental analysis was performed using WinNonlin 52 software, on individual animal data. Bioavailability was calculated as a ratio of AUCINF—D after oral dosing of test compound to AUCINF—D after IV dosing of Apo805K1. […]

Half-life for bioconversion to Apo805 (h), Human blood [1]: >24 h
Half-life for bioconversion to Apo805 (h), Human hepatocytes (human hepatocytes): > 2.0 h
percent conversion to Apo805 within indicated time, Human hepatocytes (human hepatocytes; in 2 h): 11%
SMILES: CCOC(=O)[C@@H](Cc1c[nH]c2ccccc12)NC(=O)CC[C@@H](N)C(=O)O [Apo835, H-D-Glu(D-Trp-OEt)-OH, reference compound]

oral bioavailability in rats [2]: show oral bioavailability
SMILES: CC(C)(C)C(=O)OCOC(=O)[C@@H](Cc1c[nH]c2ccccc12)NC(=O)CC[C@@H](N)C(=O)O [Apo839, H-D-Glu(D-Trp-OCH2O—CO—C(CH3)3)—OH]

biotransformation to thymodepressin (Apo805) in human hepatocytes (human hepatocytes; in words): not readily converted to thymodepressin
SMILES: CN(C)C(=O)COC(=O)[C@@H](Cc1c[nH]c2ccccc12)NC(=O)CC[C@@H](N)C(=O)O [Apo893, H-D-Glu(D-Trp-O—CH2CO—N(CH3)2)—OH]

More lines, now with the values behind:

SMILES: N[C@H](CCC(=O)N[C@@H](Cc1c[nH]c2ccccc12)C(=O)O)C(=O)OCCC(F)(F)F [Apo886]
Half-life for bioconversion to Apo805 (h), Human blood [1]: 5.9 h
Half-life for bioconversion to Apo805 (h), Human hepatocytes (human hepatocytes): 4.6 h

SMILES: CC(OC(=O)OC1CCCCC1)OC(=O)[C@@H](Cc1c[nH]c2ccccc12)NC(=O)CC[C@@H](N)C(=O)O (stereo partly drawn) [Apo843, H-D-Glu(D-Trp-O—CH(CH3)—O—CO—O-cyclohexyl)-OH]
oral bioavailability in rats [2]: show oral bioavailability
